Data: patent US20030212014A1 (priority 2000, published 2003)

Key:
HUVEC [1] = experiment: HUVEC metabolism after 16 hrs incubation with 30 mM glucose; type: cell-based, human; conditions: 1 mM AICAR in 30 mM glucose
Protocol: Incubation of HUVEC with 30 mM glucose for 16 hrs decreased free fatty oxidation by 50% (FIG. 7A) and increased free fatty acid incorporation into diacylglycerol (DAG) (i.e., esterification) by 40% (FIG. 7B). These changes were accompanied by a significant decline in mitochondria membrane potential (FIG. 7C).

HUVEC [2] = experiment: Hyperglycemia-induced apoptosis in HUVEC (TUNEL); type: cell-based, human; conditions: 30 mM glucose + 1 mM AICAR
Protocol: (A) Typical TUNEL staining (dark brown) with methylene blue counter-staining. TUNEL positive cells show a typical apoptotic configuration with shrinkage and nuclear fragmentation. […] The percentage of TUNEL positive cells was determined in 3 wells of 6 well plates (24 hr) or in eight of 60 mm dishes. Data are means ±SD.*p<0.05; vs 5 mM glucose. † p<0.05; vs 30 mM glucose alone;

high-fat fed (HFF) rats = experiment: Euglycemic hyperinsulinemic clamp in HFF rats 24 h after AICAR injection; type: in vivo, rat
Protocol: They were then returned to their cages and given a high-fat meal. […] To avoid the possible effects of a reduced caloric intake, the HFF-Con animals were pair-fed with HFF-AIC rats. 24 h after the injection, and after a 5-7 h fasting period, the rats were submitted to an euglycemic hyperinsulinemic clamp, to determine the whole body insulin sensitivity.

[3] = tested on: AMP-activated protein kinase (AMPK); experiment: AMP-activated protein kinase activity in HUVEC incubated with AICAR; type: cell-based, human
Protocol: The enzyme was assayed in a reaction mixture containing either no AMP or 0.2 mM 5′-AMP. The difference in the activity is the AMP-activated kinase activity. […] This indicates the presence of AMPK and AMPKK in HUVEC.
One of the major ATP users, the Na^+/K^+pump, was investigated. The activity of this pump was tested by measuring the uptake of radioactive rubidium in the absence and presence of ouabain, an Na^+/K^+pump inhibitor. The difference in uptake, which is referred to as ouabain-sensitive Rb^+uptake, is the Na^+/K^+pump activity. […] When the ouabain sensitive component was calculated, no ,difference was seen between the two incubations, (2.11±0.9 and 3.3±0.9 pmol/min/mg protein), thus leading us to believe that no change in Na^+/K^+pump activity had occurred. […] The AMPK activity remained high with a longer incubation time up to 120 minutes.

Akt = Akt phosphorylation in the presence of insulin in HUVEC; type: cell-based, human; conditions: 30 mM glucose + 1 mM AICAR, 24 h
Protocol: Results are means±SE (n=4) *p<0.05 vs 5 mM glucose. † p<0.05 vs 30 mM glucose;
We have previously shown that incubation of HUVEC for 2 hr in media containing 30 mM vs 5 mM glucose causes no changes in AMPK activity, malonyl CoA concentration, fatty acid oxidation, or lactate release. […] In addition, it impaired Akt phosphorylation in the presence of insulin (FIG. 11). […] AMPK activity tended to be higher after 24 h of incubation with 30 mM glucose; however, whether it was inappropriately low, in light of the decrease in ATP content (and presumably an increased AMP/ATP ratio), was not ascertained.

human retinal pericytes = experiment: Ceramide and DAG levels by diacylglycerol kinase method in pericytes; type: cell-based
Protocol: Apoptosis was induced by incubating the cells with a medium containing 0-0.5 mM palmitic acid for 3 days. Apoptotic cells were determined by conventional TUNEL staining. Ceramide and DAG levels were measured the by diacylgycerol kinase method using 32P-ATP.

[4] = tested on: acetyl CoA carboxylase (ACC); experiment: Acetyl CoA carboxylase activity in HUVEC incubated with AICAR; type: cell-based, human; conditions: 2 mM AICAR
Protocol: As previously mentioned, AMPK increases fatty acid oxidation in both liver and skeletal muscle by phosphorylation and inhibition of acetyl CoA carboxylase. We wanted to test if this effect of AMPK is also present in endothelial cells. […] A significant decrease was seen within the first 30 minutes of incubation (FIG. 3). ACC activity went down from 163.1±27.0 pmol/min/mg protein at 0 minutes to 61.1±1.1 at 30 minutes (P=0.004), 73.0 ±12.4 at 60 minutes and 51.2±5.0 at 120 minutes (P=0.015). As previously described, ACC activation increases malonyl CoA levels and this in turn inhibits CPT1, the enzyme responsible for the uptake of long chain fatty acyl CoA into the mitochondria where they are oxidized. […] Fatty acid oxidation was measured by the formation of titrated water (^3H2O) in cells incubated with ^3H-palmitate. A significant increase was seen only after a 2-hour incubation (P=0.002). […] (See Table 1A, FIG. 6.) Glucose and fatty acid oxidation, glucose uptake and lactate and pyruvate release were determined in the absence and presence of […] carnitine.
The results described in other tissues are seen in the endothelial cells. […] The presence of ACC is shown by the substantial increase in enzyme activity when 10 mM citrate is present vs. 0 mM citrate. Citrate allosterically activates ACC, but not other enzymes, such as propionyl CoA carboxylase and pyruvate carboxylase, which could also use HCO3^−as substrate. Thus, the increase in radioactive HCO3^−use in the presence of citrate is a reflection of ACC activity only. Similar to AMPK, the activity of ACC is lower in endothelial cells than in skeletal muscle and liver.

HUVEC [5] = experiment: Serine incorporation into ceramide in HUVEC; type: cell-based, human; conditions: 30 mM glucose + AICAR, 24 hr
Protocol: To assess whether alterations in ceramide contributed to these events, and particularly the decrease in membrane potential, we attempted to measure ceramide content. Ceramide was not detectable in HUVEC incubated with either 5 or 30 mM glucose. […] Consistent with these findings, we found no increase in serine incorporation into ceramide, (presumably a measure of de novo synthesis) in cells incubated for 24 hr in 30 vs 5 mM glucose.

[6] = clamp 24 h after 250 mg/kg AICAR
[7] = 1 mM AICAR vs 0.5 mM palmitate alone

NC(=O)c1ncn([C@@H]2O[C@H](CO)[C@@H](O)[C@H]2O)c1N [AICAR, 5-aminoimidizole-4-carboxamide riboside]
decline in mitochondria membrane potential caused by 30 mM glucose (HUVEC [1]): prevented all these changes
decrease in free fatty acid oxidation caused by 30 mM glucose (HUVEC [1]): prevented all these changes
increase in free fatty acid incorporation into diacylglycerol caused by 30 mM glucose (HUVEC [1]): prevented all these changes
apoptotic rate (TUNEL-positive cells) (HUVEC [2]; 24 hours): no affect
increase in apoptosis caused by hyperglycemia (HUVEC [2]; 72 hours): completely prevented
levels of muscle triglycerides or long chain fatty acyl CoA (LCFACoA) (high-fat fed (HFF) rats; after clamp): no significant change
decrease in liver malonyl-CoA (high-fat fed (HFF) rats; after clamp, vs HFF-Con): 21%
reduction of liver triglycerides accumulation (high-fat fed (HFF) rats; after clamp, vs HFF-Con): 33%
food eaten overnight (high-fat fed (HFF) rats; after single 250 mg/kg s.c. injection, high-fat meal): minor reduction
reduction of malonyl-CoA in red muscle (high-fat fed (HFF) rats; after the clamp, vs HFF-Con): 44%
basal plasma glucose (hyperglycemia caused by high-fat feeding) (high-fat fed (HFF) rats; basal state, 24 h after AICAR): decreased the hyperglycemia
other basal plasma parameters (insulin, FFA, triglycerides) (high-fat fed (HFF) rats; basal state, vs HFF-Con): did not alter
Rd (high-fat fed (HFF) rats; [6]): slight but not significant increase
increase in glucose infusion rate (GIR) (high-fat fed (HFF) rats; [6]): 50%
HGO under insulin (high-fat fed (HFF) rats; clamp 24 h after 250 mg/kg AICAR, p>0.05 vs. Chow): close to the normal value
increase in Rg' (rate of glucose uptake) in white muscle (high-fat fed (HFF) rats; clamp 24 h after AICAR): 79%
Rg' in red muscle (high-fat fed (HFF) rats; clamp 24 h after AICAR, p=0.085): tendency of increased
insulin-stimulated glucose incorporation into glycogen (high-fat fed (HFF) rats; white and red muscle): significantly increased
AMP-activated kinase activity ([3]; 0.2 mM AICAR, 30 minutes, HUVEC): 15.8±0.4 pmol/min/mg protein
AMP-activated kinase activity ([3]; 0.5 mM AICAR, 30 minutes, HUVEC): 22.5±0.3 pmol/min/mg protein
AMP-activated kinase activity ([3]; 2 mM AICAR, 30 minutes, HUVEC (concentration series)): 30.9±0.2 pmol/min/mg protein
AMP-activated kinase activity ([3]; 2 mM AICAR, at 30 minutes (time course)): 30.8 pmol/min/mg protein
AMP-activated kinase activity ([3]; 2 mM AICAR, at 60 minutes (time course)): 31.5 pmol/min/mg protein
AMP-activated kinase activity ([3]; 2 mM AICAR, at 120 minutes (time course)): 32.3 pmol/min/mg protein
impaired Akt phosphorylation in the presence of insulin caused by 30 mM glucose (Akt): completely prevented
DAG levels (human retinal pericytes; 0.5 mM palmitate + 1 mM AICAR): 24±5 nmol/mg protein
ceramide levels (human retinal pericytes; 0.5 mM palmitate + 1 mM AICAR): 3.8±1 nmol/mg protein
decrease in DAG levels (human retinal pericytes; [7]): 50%
decrease in ceramide levels (human retinal pericytes; [7]): 60%
ACC activity ([4]; at 30 minutes): 61.1±1.1 pmol/min/mg protein
ACC activity ([4]; at 60 minutes): 73.0 ±12.4 pmol/min/mg protein
ACC activity ([4]; at 120 minutes): 51.2±5.0 pmol/min/mg protein
serine incorporation into ceramide (HUVEC [5]): 9.0±1.2
